Read-outs that look alike come from different tables or passages of the source.
Target: human CB2R (Homo sapiens, UniProt P34972)
Assay: CB2R mediated modulation of cAMP synthesis
Assay type: cell-based
Method: B. CB2R Mediated Modulation of cAMP Synthesis:
Compounds of the invention were evaluated for their CB2 agonist or inverse agonistic activity in accordance with the following experimental method.
CHO cells expressing human CB2R (Euroscreen) were plated at a density of 5000 cells per well in 384 well plates and incubated overnight at 37° C. After removing the media, the cells were treated with test compounds diluted in stimulation buffer containing 1 mM IBMX, 0.25% BSA and 10 uM Forskolin. The assay was incubated for 30 minutes at 37° C. Cells were lysed and the cAMP concentration was measured using DiscoverX-XS cAMP kit, following the manufacturer's protocol. In this setting, agonists will decrease forskolin induced production of cAMP while inverse agonists will further increase forskolin induced production of cAMP. EC50 of agonists were calculated as follows. The maximal amount of cAMP produced by forskolin compared to the level of cAMP inhibited by 1 uM CP55940 is defined as 100%. […] Data was analyzed using a four-parameter logistic model. (Model 205 of XLfit 4.0).

[1] = CHO cells expressing human CB2R, inhibition of forskolin-stimulated cAMP synthesis, mean, read-out: CB2 CAMP @ EC50 nM (mean)

Chain of human CB2R (P34972 whole entry): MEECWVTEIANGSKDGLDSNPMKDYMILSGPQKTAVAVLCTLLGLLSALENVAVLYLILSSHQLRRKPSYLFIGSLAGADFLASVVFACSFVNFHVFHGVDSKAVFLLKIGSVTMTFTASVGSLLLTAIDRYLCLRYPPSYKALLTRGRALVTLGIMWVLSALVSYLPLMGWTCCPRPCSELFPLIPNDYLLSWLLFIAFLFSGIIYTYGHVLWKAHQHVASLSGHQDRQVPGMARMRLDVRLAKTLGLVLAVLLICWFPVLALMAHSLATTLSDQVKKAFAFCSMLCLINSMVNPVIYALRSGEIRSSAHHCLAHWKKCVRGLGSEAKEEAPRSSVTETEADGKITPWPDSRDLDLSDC

SMILES | EC50 [nM] | EC50 [1] [nM]
CC(C)(C)c1cc(NC(=O)[C@@H]2CC(F)(F)CN2C(=O)C2CCC(F)(F)CC2)no1 [(S)-1-(4,4-Difluoro-cyclohexanecarbonyl)-4,4-difluoro-pyrrolidine-2-carboxylic acid (5-tert-butyl-isoxazol-3-yl)-amide] | 226 | 
CC(C)(C)c1cc(NC(=O)[C@@H]2CCC(=O)N2c2ccc(Cl)cc2F)on1 [(S)-1-(4-Chloro-2-fluoro-phenyl)-5-oxo-pyrrolidine-2-carboxylic acid (3-tert-butyl-isoxazol-5-yl)-amide] | 82 | 
CC(C)(C)c1cc(NC(=O)[C@@H]2CCC(=O)N2c2ccc(Cl)c(F)c2)on1 [(S)-1-(4-Chloro-3-fluoro-phenyl)-5-oxo-pyrrolidine-2-carboxylic acid (3-tert-butyl-isoxazol-5-yl)-amide] | 14.2 | 
CC(C)(C)c1cc(NC(=O)[C@@H]2CCC(=O)N2c2ccc(Cl)c(F)c2)no1 [(S)-1-(4-Chloro-3-fluoro-phenyl)-5-oxo-pyrrolidine-2-carboxylic acid (5-tert-butyl-isoxazol-3-yl)-amide] | 12.7 | 
Cc1cc(N2C(=O)CC[C@H]2C(=O)Nc2cc(C(C)(C)C)no2)ccc1Cl [(S)-1-(4-Chloro-3-methyl-phenyl)-5-oxo-pyrrolidine-2-carboxylic acid (3-tert-butyl-isoxazol-5-yl)-amide] | 23.7 | 
Cc1cc(N2C(=O)CC[C@H]2C(=O)Nc2cc(C(C)(C)C)on2)ccc1Cl [(S)-1-(4-Chloro-3-methyl-phenyl)-5-oxo-pyrrolidine-2-carboxylic acid (5-tert-butyl-isoxazol-3-yl)-amide] | 59.4 | 
CC(C)(C)c1cc(NC(=O)[C@@H]2CCCN2S(=O)(=O)c2ccc(Cl)cc2)no1 [(S)-1-(4-Chloro-benzenesulfonyl)-pyrrolidine-2-carboxylic acid (5-tert-butyl-isoxazol-3-yl)-amide] | 284 | 
CC(C)(C)c1cc(NC(=O)[C@@H]2CCCN2Cc2ccc(Cl)cc2)on1 [(S)-1-(4-Chloro-benzyl)-pyrrolidine-2-carboxylic acid (3-tert-butyl-isoxazol-5-yl)-amide] | 2.28 | 
CC(C)(C)c1cc(NC(=O)[C@]2(C)CCCN2c2ccc(Cl)cc2)no1 [(S)-1-(4-Chloro-phenyl)-2-methyl-pyrrolidine-2-carboxylic acid (5-tert-butyl-isoxazol-3-yl)-amide] | 0.21 | 
C[C@@]1(C(=O)Nc2ccc(C(F)(F)F)cn2)CCCN1c1ccc(Cl)cc1 [(S)-1-(4-Chloro-phenyl)-2-methyl-pyrrolidine-2-carboxylic acid (5-trifluoromethyl-pyridin-2-yl)-amide] | 27.2 | 
O=C(NCCC1CCCCC1)[C@@H]1CCC(=O)N1c1ccc(Cl)cc1 [(S)-1-(4-Chloro-phenyl)-5-oxo-pyrrolidine-2-carboxylic acid (2-cyclohexyl-ethyl)-amide] | 334 | 
CC1CC(NC(=O)[C@@H]2CCC(=O)N2c2ccc(Cl)cc2)CC(C)(C)C1 (stereo partly drawn) [(S)-1-(4-Chloro-phenyl)-5-oxo-pyrrolidine-2-carboxylic acid (3,3,5-trimethyl-cyclohexyl)-amide] | 212 | 
CC(C)c1cc(NC(=O)[C@@H]2CCC(=O)N2c2ccc(Cl)cc2)on1 [(S)-1-(4-Chloro-phenyl)-5-oxo-pyrrolidine-2-carboxylic acid (3-isopropyl-isoxazol-5-yl)-amide] | 290 | 
CCCc1cc(NC(=O)[C@@H]2CCC(=O)N2c2ccc(Cl)cc2)on1 [(S)-1-(4-Chloro-phenyl)-5-oxo-pyrrolidine-2-carboxylic acid (3-propyl-isoxazol-5-yl)-amide] | 263 | 
CCC(C)c1cc(NC(=O)[C@@H]2CCC(=O)N2c2ccc(Cl)cc2)on1 (stereo partly drawn) [(S)-1-(4-Chloro-phenyl)-5-oxo-pyrrolidine-2-carboxylic acid (3-sec-butyl-isoxazol-5-yl)-amide] |  | 104
CC(C)(C)c1cc(NC(=O)[C@@H]2CCC(=O)N2c2ccc(Cl)cc2)sn1 [(S)-1-(4-Chloro-phenyl)-5-oxo-pyrrolidine-2-carboxylic acid (3-tert-butyl-isothiazol-5-yl)-amide] | 135 | 
CC(C)(C)c1cccc(NC(=O)[C@@H]2CCC(=O)N2c2ccc(Cl)cc2)c1 [(S)-1-(4-Chloro-phenyl)-5-oxo-pyrrolidine-2-carboxylic acid (3-tert-butyl-phenyl)-amide] | 58.7 | 
CC(C)(C)C1CCC(NC(=O)[C@@H]2CCC(=O)N2c2ccc(Cl)cc2)CC1 (stereo partly drawn) [(S)-1-(4-Chloro-phenyl)-5-oxo-pyrrolidine-2-carboxylic acid (4-tert-butyl-cyclohexyl)-amide] | 159 | 
O=C(Nc1nc2cc(Cl)ccc2[nH]1)[C@@H]1CCC(=O)N1c1ccc(Cl)cc1 [(S)-1-(4-Chloro-phenyl)-5-oxo-pyrrolidine-2-carboxylic acid (5-chloro-1H-benzimidazol-2-yl)-amide] |  | 255

SMILES | EC50 [nM] | EC50 [1] [nM]
Cc1ccc(NC(=O)[C@@H]2CCC(=O)N2c2ccc(Cl)cc2)nc1 [(S)-1-(4-Chloro-phenyl)-5-oxo-pyrrolidine-2-carboxylic acid (5-methyl-pyridin-2-yl)-amide] | 485 | 
CC(C)(CO)c1cc(NC(=O)[C@@H]2CCC(=O)N2c2ccc(Cl)cc2)on1 [(S)-1-(4-Chloro-phenyl)-5-oxo-pyrrolidine-2-carboxylic acid [3-(2-hydroxy-1,1-dimethyl-ethyl)-isoxazol-5-yl]-amide] | 152 | 
COc1ccc(-c2nsc(NC(=O)[C@@H]3CCC(=O)N3c3ccc(Cl)cc3)n2)cc1 [(S)-1-(4-Chloro-phenyl)-5-oxo-pyrrolidine-2-carboxylic acid [3-(4-methoxy-phenyl)-1,2,4-thiadiazol-5-yl]-amide] |  | 194
CC(C)(C)CC(C)(C)NC(=O)[C@@H]1CCCN1c1ccc(Cl)cc1 [(S)-1-(4-Chloro-phenyl)-pyrrolidine-2-carboxylic acid (1,1,3,3-tetramethyl-butyl)-amide] | 25.1 | 
CC(=O)N1CCC(CNC(=O)[C@@H]2CCCN2c2ccc(Cl)cc2)CC1 [(S)-1-(4-Chloro-phenyl)-pyrrolidine-2-carboxylic acid (1-acetyl-piperidin-4-ylmethyl)-amide] | 0.015 | 
CC(C)(C)SCCNC(=O)[C@@H]1CCCN1c1ccc(Cl)cc1 [(S)-1-(4-Chloro-phenyl)-pyrrolidine-2-carboxylic acid (2-tert-butylsulfanyl-ethyl)-amide] | 2.61 | 
CC1CC(NC(=O)[C@@H]2CCCN2c2ccc(Cl)cc2)CC(C)(C)C1 (stereo partly drawn) [(S)-1-(4-Chloro-phenyl)-pyrrolidine-2-carboxylic acid (3,3,5-trimethyl-cyclohexyl)-amide] | 2.16 | 
O=C(Nc1ccc(C(F)(F)F)c(F)c1)[C@@H]1CCCN1c1ccc(Cl)cc1 [(S)-1-(4-Chloro-phenyl)-pyrrolidine-2-carboxylic acid (3-fluoro-4-trifluoromethyl-phenyl)-amide] | 30.4 | 
O=C(Nc1nc(-c2ccccc2)ns1)[C@@H]1CCCN1c1ccc(Cl)cc1 [(S)-1-(4-Chloro-phenyl)-pyrrolidine-2-carboxylic acid (3-phenyl-1,2,4-thiadiazol-5-yl)-amide] | 4.85 | 
CCCc1cc(NC(=O)[C@@H]2CCCN2c2ccc(Cl)cc2)on1 [(S)-1-(4-Chloro-phenyl)-pyrrolidine-2-carboxylic acid (3-propyl-isoxazol-5-yl)-amide] | 2.41 | 
O=C(Nc1nc2c(s1)CCCC2)[C@@H]1CCCN1c1ccc(Cl)cc1 [(S)-1-(4-Chloro-phenyl)-pyrrolidine-2-carboxylic acid (4,5,6,7-tetrahydro-benzothiazol-2-yl)-amide] |  | 12.7
O=C(Nc1nc(C2CCCCC2)cs1)[C@@H]1CCCN1c1ccc(Cl)cc1 [(S)-1-(4-Chloro-phenyl)-pyrrolidine-2-carboxylic acid (4-cyclohexyl-thiazol-2-yl)-amide] | 35.5 | 
O=C(Nc1nc(C2CC2)cs1)[C@@H]1CCCN1c1ccc(Cl)cc1 [(S)-1-(4-Chloro-phenyl)-pyrrolidine-2-carboxylic acid (4-cyclopropyl-thiazol-2-yl)-amide] | 36.1 | 
CCc1ccnc(NC(=O)[C@@H]2CCCN2c2ccc(Cl)cc2)c1 [(S)-1-(4-Chloro-phenyl)-pyrrolidine-2-carboxylic acid (4-ethyl-pyridin-2-yl)-amide] | 1.2 | 
O=C(Nc1ccc(F)c(C(F)(F)F)c1)[C@@H]1CCCN1c1ccc(Cl)cc1 [(S)-1-(4-Chloro-phenyl)-pyrrolidine-2-carboxylic acid (4-fluoro-3-trifluoromethyl-phenyl)-amide] | 19.1 | 
Cc1nonc1CNC(=O)[C@@H]1CCCN1c1ccc(Cl)cc1 [(S)-1-(4-Chloro-phenyl)-pyrrolidine-2-carboxylic acid (4-methyl-furazan-3-ylmethyl)-amide] |  | 498
CC(C)(C)c1nc(NC(=O)[C@@H]2CCCN2c2ccc(Cl)cc2)sc1C#N [(S)-1-(4-Chloro-phenyl)-pyrrolidine-2-carboxylic acid (4-tert-butyl-5-cyano-thiazol-2-yl)-amide] | 31.7 | 
CC(C)(C)C1CCC(NC(=O)[C@@H]2CCCN2c2ccc(Cl)cc2)CC1 (stereo partly drawn) [(S)-1-(4-Chloro-phenyl)-pyrrolidine-2-carboxylic acid (4-tert-butyl-cyclohexyl)-amide] | 7.42 | 
CC(C)(C)c1csc(NC(=O)[C@@H]2CCCN2c2ccc(Cl)cc2)n1 [(S)-1-(4-Chloro-phenyl)-pyrrolidine-2-carboxylic acid (4-tert-butyl-thiazol-2-yl)-amide] | 30.1 | 

— patent publication US8629157B2, “Pyrrolidine compounds which modulate the CB2 receptor” (Boehringer Ingelheim International GmbH, priority 2009, dated 2014)
